Experimental data from patent US6362331B1, “Process for the preparation of antitumor agents” (priority 2001, dated 2002).

Key:
[1] = system: P388; details: Kaneko et al., J. Med Chem. 1985; cited from earlier work
[2] = system: calf thymus DNA; assay: Thermal denaturation with calf thymus DNA; type: binding; details: for ΔTm (elevation of helix melting temperature of CT DNA): 1:5 molar ratio (PBD):(DNA), incubation for 18 h at 37° C.; for Induced ΔTm after Incubation at 37° C. for 0 h / Induced ΔTm after Incubation at 37° C. for 18 h: [PBD]:[DNA] molar ratio 1:5
Protocol: (§1) Biological Activity: In vitro anticancer activity studies were carried out at National Caner Institute (USA) and the thermal denaturation of DNA was performed at School of Life Science, University of Hyderabad.
(§2) Table 1: Thermal denaturation with calf thymus DNA^a, at a [PBD]:[DNA]molar ratio of 1:5^b and in vitro one dose primary anticancer assay^c in the NCI-H460, MCF 7 and SF-268 for Vi, wherein R is H; R1 is H, OH or OAc; and n is 3 to 5.

[3] = system: NCI-H460 (Lung); assay: In vitro one dose primary anticancer assay (NCI), NCI-H460; type: cell-based, human
Protocol: as §1, §2
(§3) In this assay, for a 1:5 molar ratio of (PBD):(DNA), one of this mixed imine-amide PBD dimer VI, where n is 5, elevates the helix melting temperature of CT DNA remarkably to 17° C. after incubation for 18 h at 37° C.

[4] = system: MCF 7 (Breast); assay: In vitro one dose primary anticancer assay (NCI), MCF 7; type: cell-based, human
Protocol: as §1, §2, §3

[5] = system: SF-268 (CNS); assay: In vitro one dose primary anticancer assay (NCI), SF-268; type: cell-based, human
Protocol: as §1, §2, §3

| SMILES | in vivo antitumour activity [1] | ΔTm (elevation of helix melting temperature of CT DNA) [2] | Induced ΔTm after Incubation at 37° C. for 0 h [2] | Induced ΔTm after Incubation at 37° C. for 18 h [2] | Growth Percentage (Lung) NCI-H460 [3] | Growth Percentage (Breast) MCF 7 [4] | Growth Percentage (CNS) SF-268 [5] |
| --- | --- | --- | --- | --- | --- | --- | --- |
| COc1cc2c(cc1OC(C)=O)NC(=O)C1C[C@H](OC(C)=O)CN1C2=O (stereo partly drawn) [(7-methoxy-2-methylcarbonyloxy-5,11-dioxo-(2S)-2,3,5,10,11,11a-hexahydro-1H-pyrrolo[2,1-c][1,4]-benzodiazepine-5,11-dione-8-yl acetate] | significant in vivo antitumour activity |  |  |  |  |  |  |
| COc1cc2c(cc1O)N=CC1CCCN1C2=O (stereo not drawn) [DC-81, reference compound] |  | 0.7 °C | 0.3 C | 0.7 C |  |  |  |
| COc1cc2c(cc1OCCCOc1cc3c(cc1OC)C(=O)N1CCC[C@H]1C=N3)N=C[C@@H]1CCCN1C2=O [DSB-120, reference compound] |  |  | 10.2 C |  |  |  |  |
| COc1cc2c(cc1OCCCOc1cc3c(cc1OC)NC(=O)[C@H]1CCCN1C3=O)N=C[C@@H]1CCCN1C2=O [VI (n is 3)] |  |  | 6.5 C | 7.0 C | 4 | 10 | 11 |
| COc1cc2c(cc1OCCCCOc1cc3c(cc1OC)NC(=O)[C@H]1CCCN1C3=O)N=C[C@@H]1CCCN1C2=O [VI (n is 4)] |  |  | 5.0 C | 8.5 C | −16 | −41 | −81 |
| COc1cc2c(cc1OCCCCCOc1cc3c(cc1OC)NC(=O)[C@H]1CCCN1C3=O)N=C[C@@H]1CCCN1C2=O [VI (n is 5), 8-methoxy-7-3-[7-methoxy-5-oxo-(11aS)-2,3,4,11a-tetrahydro-1H-pyrrolo[2,1-c][1,4]-benzodiazepine-8-yloxy]pentyloxy-(11aR)-2,3,5,10,11a hexahydro-1H -pyrrolo[2,1-c][1,4]benzodiazepine-5,11-dione] |  | 17 °C | 14.0 C | 17.0 C | −39 | 7 | −21 |
